One assay deals with T1, SIAH1 (Homo sapiens, UniProt Q8IUQ4).
T1 sequence (Q8IUQ4 1-282): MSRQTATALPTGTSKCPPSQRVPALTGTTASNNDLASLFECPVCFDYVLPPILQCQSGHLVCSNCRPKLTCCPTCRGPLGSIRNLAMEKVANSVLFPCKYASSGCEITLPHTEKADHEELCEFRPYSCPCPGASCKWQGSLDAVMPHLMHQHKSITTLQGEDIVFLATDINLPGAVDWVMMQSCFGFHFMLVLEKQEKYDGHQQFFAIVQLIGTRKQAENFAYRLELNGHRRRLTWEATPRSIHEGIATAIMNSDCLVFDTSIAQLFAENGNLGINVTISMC
Kind of assay: E3-ligase auto ubiquitination assay (K48-linked polyubiquitination of HAUSP mediated by SIAH1). As to conditions: 37° C., 1 hour, Western blot with Ub-K48 antibody, compared to vehicle; FIG. 14A, 14B. The assay is classed as biochemical. How it is done: SIAH1 mediates the K48-linked polyubiquitination of HAUSP. Therefore, for the ubiquitination assay, SIAH1 was incubated in the solution (0.25 mg/1 ml, total 100 μg) containing 20 mM Tris-HCl buffer (pH 8.0), 100 mM NaCl, 1 mM DTT and 40% glycerol and HAUSP (50 μg) was in 50 mM HEPES pH 7.5, 100 mM NaCl, 1 mM TCEP (tris (2-carboxyethyl) phosphine) buffer. […] The E3-ligase auto ubiquitination assay was performed by E3 Ligase Auto-Ubiquitilylation Assay Kit (Abcam, ab139469, UK).

The subject of assay [1] is HAUSP levels in SH-SY5Y cells. Kind of assay: Western blot of HAUSP in cocaine-treated SH-SY5Y cells. As to conditions: cocaine 200 μM with inhibitor, 24 hr; for HAUSP levels decreased by cocaine in SH-SY5Y cells (western blot): FIG. 14C; for relative protein expression ratios of HAUSP normalized with β-actin: quantified with ImageJ, FIG. 14D.

Structures are written as SMILES.

`COCCNC(=O)c1ccc(Cl)cc1NS(=O)(=O)c1c(C)cc(C)cc1C` [Compound 2-4, 4-Chloro-N-(2-methoxyethyl)-2-((2,4,6-trimethylphenyl)sulfonamido)benzamide]: the “inhibition of K48-linked polyubiquitination of HAUSP mediated by SIAH1” value (from here on “inhibition”) against SIAH1 is reported as “can inhibit”. For the same compound, in assay [1], the “HAUSP levels decreased by cocaine in SH-SY5Y cells (western blot)” value (“HAUSP levels decreased by cocaine” for short) was “can restore” and the “relative protein expression ratios of HAUSP normalized with β-actin” value is “can restore”.
As for `COCCNC(=O)c1ccc(Br)cc1NC(=O)c1c(C)cc(C)cc1C` [Compound 4-2, N-(5-Bromo-2-((2-methoxyethyl)carbamoyl)phenyl)-2,4,6-trimethylbenzamide], on SIAH1, the “inhibition” value is listed as “can inhibit”. Also, in assay [1], the “HAUSP levels decreased by cocaine” value is reported as “can restore” and the “relative protein expression ratios of HAUSP normalized with β-actin” value is recorded as “can restore”.
`COCCNC(=O)c1ccc(Br)cc1NC(=O)c1ccccc1C` [Compound 4-1, 4-Bromo-N-(2-methoxyethyl)-2-(2-methylbenzamido)benzamide]: on SIAH1, the “inhibition” value is “can inhibit”. Also, in assay [1], the “HAUSP levels decreased by cocaine” value is listed as “can restore” and the “relative protein expression ratios of HAUSP normalized with β-actin” value is “can restore”.
Regarding `CC(C)(C)C(=O)Oc1ccc(S(=O)(=O)Nc2ccccc2C(=O)NCCO)cc1` [Compound 12-1], the “inhibition” value on SIAH1 is reported as “can inhibit”. For the same compound, in assay [1], the “HAUSP levels decreased by cocaine” value is on record as “can restore” and the “relative protein expression ratios of HAUSP normalized with β-actin” value is “can restore”.
Consider `CCOCCNC(=O)c1ccc(Cl)cc1NC(=O)c1ccccc1C` [Compound 6-1, 4-Chloro-N-(2-ethoxyethyl)-2-(2-methylbenzamido)benzamide], for which the “inhibition” value on SIAH1 is reported as “can inhibit”. In assay [1], the “HAUSP levels decreased by cocaine” value is given as “can restore” and the “relative protein expression ratios of HAUSP normalized with β-actin” value is “can restore”.
As to `COCCNC(=O)c1ccc(Cl)cc1NC(=O)c1c(F)cccc1F` [Compound 2-5, 4-Chloro-N-(2-methoxyethyl)-2-(2,6-difluorobenzamido)benzamide], the “inhibition” value against SIAH1 is given as “can inhibit”. In addition, in assay [1], the “HAUSP levels decreased by cocaine” value is “can restore” and the “relative protein expression ratios of HAUSP normalized with β-actin” value is “can restore”.
Take `COCCNC(=O)c1ccc(Cl)cc1NS(=O)(=O)c1ccccc1C` [Compound 2-1, 4-Chloro-N-(2-methoxyethyl)-2-((2-methylphenyl)sulfonamido)benzamide]: the “inhibition” value on SIAH1 is reported as “can inhibit”. Moreover, in assay [1], the “HAUSP levels decreased by cocaine” value is listed as “can restore” and the “relative protein expression ratios of HAUSP normalized with β-actin” value is “can restore”.
As for `COCCNC(=O)c1ccc(C)cc1NC(=O)c1c(C)cc(C)cc1C` [Compound 5-2, N-(2-((2-Methoxyethyl)carbamoyl)-5-methylphenyl)-2,4,6-trimethylbenzamide], the “inhibition” value at SIAH1 is “can inhibit”. Further, in assay [1], the “HAUSP levels decreased by cocaine” value is recorded as “can restore” and the “relative protein expression ratios of HAUSP normalized with β-actin” value was “can restore”.
Regarding `COCCNC(=O)c1ccccc1NC(=O)c1ccccc1C` [Compound 3-2, N-(2-Methoxyethyl)-2-(2-methylbenzamido)benzamide], the “inhibition” value at SIAH1 is listed as “can inhibit”. Besides, in assay [1], the “HAUSP levels decreased by cocaine” value is given as “can restore” and the “relative protein expression ratios of HAUSP normalized with β-actin” value is listed as “can restore”.
With `COCCNC(=O)c1ccccc1NS(=O)(=O)c1ccccc1C` [Compound 3-1, N-(2-Methoxyethyl)-2-((2-methylphenyl)sulfonamido)benzamide], at SIAH1, the “inhibition” value is given as “can inhibit”. In assay [1], the “HAUSP levels decreased by cocaine” value is given as “can restore” and the “relative protein expression ratios of HAUSP normalized with β-actin” value was “can restore”.
`Cc1ccccc1C(=O)OCCOC(=O)c1ccc(Cl)cc1N` [Compound 1-1, 2-((2-Methylbenzoyl)oxy) ethyl 2-amino-4-chlorobenzoate]: the “inhibition” value at SIAH1 is “can inhibit”. Moreover, in assay [1], the “HAUSP levels decreased by cocaine” value was “can restore” and the “relative protein expression ratios of HAUSP normalized with β-actin” value is “can restore”.
Regarding `Cc1ccccc1S(=O)(=O)Nc1ccccc1C(=O)NCCO` [Compound 12-2, N-(2-hydroxyethyl)-2-(2-methylphenylsulfonamido)benzamide], on SIAH1, the “inhibition” value was “can inhibit”. Moreover, in assay [1], the “HAUSP levels decreased by cocaine” value is “can restore” and the “relative protein expression ratios of HAUSP normalized with β-actin” value was “can restore”.
Consider `CCCOCCNC(=O)c1ccc(Cl)cc1NC(=O)c1ccccc1C` [Compound 7-1, 4-Chloro-N-(2-propoxyethyl)-2-(2-methylbenzamido)benzamide], for which the “inhibition” value against SIAH1 was “can inhibit”. In assay [1], the “HAUSP levels decreased by cocaine” value is recorded as “can restore” and the “relative protein expression ratios of HAUSP normalized with β-actin” value was “can restore”.

(Values after patent US20250091982A1, “Pharmaceutical Composition, Methods of Use Thereof for Treating Cocaine Addiction, and Novel Use of Hausp K444R Point Mutant Mouse” (PHARWAR BIOTECHNOLOGY, INC. PTE. LTD., priority 2022, published 2025).)
